# pIC50: −log10 of the molar value.
# Target: T1, human TPH1 (Homo sapiens, UniProt P17752)
# T1 sequence (P17752 1-444): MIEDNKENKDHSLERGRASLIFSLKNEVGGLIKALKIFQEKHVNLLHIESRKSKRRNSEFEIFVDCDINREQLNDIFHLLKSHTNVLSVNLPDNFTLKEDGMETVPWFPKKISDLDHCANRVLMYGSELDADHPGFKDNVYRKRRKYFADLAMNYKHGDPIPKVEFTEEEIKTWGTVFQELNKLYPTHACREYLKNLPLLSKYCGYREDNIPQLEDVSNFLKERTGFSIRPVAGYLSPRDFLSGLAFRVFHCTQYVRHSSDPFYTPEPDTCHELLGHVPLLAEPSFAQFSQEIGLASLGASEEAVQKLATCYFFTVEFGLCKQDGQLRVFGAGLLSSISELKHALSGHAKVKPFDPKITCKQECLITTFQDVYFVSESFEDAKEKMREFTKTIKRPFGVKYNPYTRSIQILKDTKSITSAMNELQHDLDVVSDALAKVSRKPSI
# Assay: biochemical
# Outline: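 Inhibition is derived from 5-hydroxy-L-tryptophan fluorescence (540 nm emission, 300 nm excitation) after perchloric acid stop, relative to DMSO vehicle. Recombinant full-length human enzyme (40-80 nM) reacts with 40 μM tryptophan plus 100 μM methyltetrahydropterin, pH 7.6 Tris/DTT/catalase, 15° C, 60 min.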
row,SMILES,pIC50
1,"COc1ccc(C2c3c(nc4cc(C(F)(F)F)ccn34)CCN2C(=O)COc2cccnc2Cl)cc1OC (stereo not drawn) [Example 3.1.15, 2-((2-chloropyridin-3-yl)oxy)-1-(1-(3,4-dimethoxyphenyl)-7-(trifluoromethyl)-3,4-dihydroimidazo[1,2-a:5,4-c′]dipyridin-2(1H)-yl)ethan-1-one]",7.17
2,COc1ccc(C2c3c(nc4cc(C(F)(F)F)ccn34)CCN2C(=O)COc2cccnc2C)cc1OC (stereo not drawn) [Example 3.1.16],6.58
3,"COc1ccc(C2c3c(nc4cc(C(F)(F)F)ccn34)CCN2C(=O)COc2cccnc2Br)cc1OC (stereo not drawn) [Example 3.1.17, 2-((2-bromopyridin-3-yl)oxy)-1-(1-(3,4-dimethoxyphenyl)-7-(trifluoromethyl)-3,4-dihydroimidazo[1,2-a:5,4-c′]dipyridin-2(1H)-yl)ethan-1-one]",7.70
4,COc1ccc(C2c3c(nc4cc(C(F)(F)F)ccn34)CCN2C(=O)COc2cnccc2Cl)cc1OC (stereo not drawn) [Example 3.1.18],6.63
5,COc1ccc(C2c3c(nc4cc(C(F)(F)F)ccn34)CCN2C(=O)COc2ccc3ncccc3c2)cc1OC (stereo not drawn) [Example 3.1.19],6.93
6,"COc1ccc(C2c3c(nc4cc(C(F)(F)F)ccn34)CCN2C(=O)COc2ccc3ccncc3c2)cc1OC (stereo not drawn) [Example 3.1.20, 1-(1-(3,4-dimethoxyphenyl)-7-(trifluoromethyl)-3,4-dihydroimidazo[1,2-a:5,4-c′]dipyridin-2(1H)-yl)-2-(isoquinolin-7-yloxy)ethan-1-one]",7.72
7,COc1ccc(C2c3c(nc4cc(C(F)(F)F)ccn34)CCN2C(=O)COc2ccc3c(c2)OCO3)cc1OC (stereo not drawn) [Example 3.1.21],6.94
8,COc1ccc(C2c3c(nc4cc(C(F)(F)F)ccn34)CCN2C(=O)COc2cnc3ccccc3c2)cc1OC (stereo not drawn) [Example 3.1.22],6.78
9,COc1ccc(C2c3c(nc4cc(C(F)(F)F)ccn34)CCN2C(=O)COc2cnc3c(c2)ncn3C)cc1OC (stereo not drawn) [Example 3.1.23],6.42
10,COc1ccc(C2c3c(nc4cc(C(F)(F)F)ccn34)CCN2C(=O)COc2cc(-c3ccccc3)nn2C)cc1OC (stereo not drawn) [Example 3.1.24],6.80
11,"COc1ccc(C2c3c(nc4cc(C(F)(F)F)ccn34)CCN2C(=O)COc2nn(C)c(C(F)(F)F)c2Cl)cc1OC (stereo not drawn) [Example 3.1.25, 2-((4-chloro-1-methyl-5-(trifluoromethyl)-1H-pyrazol-3-yl)oxy)-1-(1-(3,4-dimethoxyphenyl)-7-(trifluoromethyl)-3,4-dihydroimidazo[1,2-a:5,4-c′]dipyridin-2(1H)-yl)ethan-1-one]",7.11
12,"COc1ccc(C2c3c(nc4cc(C(F)(F)F)ccn34)CCN2C(=O)COc2ccc(CN3CCOCC3)cc2Cl)cc1OC (stereo not drawn) [Example 3.1.26, 2-(2-chloro-4-(morpholinomethyl)phenoxy)-1-(1-(3,4-dimethoxyphe-nyl)-7-(trifluoromethyl)-3,4-dihydroimidazo[1,2-a:5,4-c′]dipyridin-2(1H)-yl)ethan-1-one]",7.77
13,"COc1ccc(C2c3c(nc4cc(C(F)(F)F)ccn34)CCN2C(=O)COc2ccc(CN3CCOCC3)nc2Cl)cc1OC (stereo not drawn) [Example 3.1.27, 2-((2-chloro-6-(morpholinomethyl)pyridin-3-yl)oxy)-1-(1-(3,4-dimethoxyphenyl)-7-(trifluoromethyl)-3,4-dihydroimidazo[1,2-a:5,4-c′]dipyridin-2(1H)-yl)ethan-1-one]",7.08
14,CCc1ccccc1OCC(=O)N1CCc2nc3cc(C(F)(F)F)ccn3c2C1c1ccc(OC)c(OC)c1 (stereo not drawn) [Example 3.1.28],6.93
15,"CCc1cc(Cl)ccc1OCC(=O)N1CCc2nc3cc(C(F)(F)F)ccn3c2C1c1ccc(OC)c(OC)c1 (stereo not drawn) [Example 3.1.29, 2-(4-chloro-2-ethylphenoxy)-1-(1-(3,4-dimethoxyphenyl)-7-(trifluoromethyl)-3,4-dihydroimidazo[1,2-a:5,4-c′]dipyridin-2(1H)-yl)ethan-1-one]",7.19
16,"CCc1ncccc1OCC(=O)N1CCc2nc3cc(C(F)(F)F)ccn3c2C1c1ccc(OC)c(OC)c1 (stereo not drawn) [Example 3.1.30, 1-(1-(3,4-dimethoxyphenyl)-7-(trifluoromethyl)-3,4-dihydroimidazo[1,2-a:5,4-c′]dipyridin-2(1H)-yl)-2-((2-ethylpyridin-3-yl)oxy)ethan-1-one]",7.44
17,"CCc1cc(Br)ccc1OCC(=O)N1CCc2nc3cc(C(F)(F)F)ccn3c2C1c1ccc(OC)c(OC)c1 (stereo not drawn) [Example 3.1.31, 2-(4-bromo-2-ethylphenoxy)-1-(1-(3,4-dimethoxyphenyl)-7-(trifluoromethyl)-3,4-dihydroimidazo[1,2-a:5,4-c′]dipyridin-2(1H)-yl)ethan-1-one]",7.37
18,"CCc1cc(N2CCN(C)CC2)ccc1OCC(=O)N1CCc2nc3cc(C(F)(F)F)ccn3c2C1c1ccc(OC)c(OC)c1 (stereo not drawn) [Example 3.1.32, 1-(1-(3,4-dimethoxyphenyl)-7-(trifluoromethyl)-3,4-dihydroimidazo[1,2-a:5,4-c′]dipyridin-2(1H)-yl)-2-(2-ethyl-4-(4-methylpiperazin-1-yl)phenoxy)ethan-1-one]",7.68
19,"CCc1cc(N2CCOCC2)ccc1OCC(=O)N1CCc2nc3cc(C(F)(F)F)ccn3c2C1c1ccc(OC)c(OC)c1 (stereo not drawn) [Example 3.1.33, 1-(1-(3,4-dimethoxyphenyl)-7-(trifluoromethyl)-3,4-dihydroimidazo[1,2-a:5,4-c′]dipyridin-2(1H)-yl)-2-(2-ethyl-4-morpholinophenoxy)ethan-1-one]",7.92
20,COc1ccc(C2c3c(nc4cc(C(F)(F)F)ccn34)CCN2C(=O)COc2cccnc2C2CC2)cc1OC (stereo not drawn) [Example 3.1.35],6.47
21,"O=C(COc1ccc(CN2CCOCC2)cc1Cl)N1CCc2nc3cc(C(F)(F)F)ccn3c2C1c1cccnc1F (stereo not drawn) [Example 3.2.1, 2-(2-chloro-4-(morpholinomethyl)phenoxy)-1-(1-(2-fluoropyridin-3-yl)-7-(trifluoromethyl)-3,4-dihydroimidazo[1,2-a:5,4-c′]dipyridin-2(1H)-yl)ethan-1-one]",7.37
22,"O=C(COc1ccc2ccccc2c1)N1CCc2nc3cc(C(F)(F)F)ccn3c2C1c1cccnc1F (stereo not drawn) [Example 3.2.2, 1-(1-(2-fluoropyridin-3-yl)-7-(trifluoromethyl)-3,4-dihydroimidazo[1,2-a:5,4-c′]dipyridin-2(1H)-yl)-2-(naphthalen-2-yloxy)ethan-1-one]",7.09
23,"Cc1ccc(OCC(=O)N2CCc3nc4cc(C(F)(F)F)ccn4c3C2c2cccnc2F)cc1 (stereo not drawn) [Example 3.2.3, 1-(1-(2-fluoropyridin-3-yl)-7-(trifluoromethyl)-3,4-dihydroimidazo[1,2-a:5,4-c′]dipyridin-2(1H)-yl)-2-(p-tolyloxy)ethan-1-one]",6.60
24,"COc1ccc(C2c3c(nc4cc(C(F)(F)F)ccn34)CCN2C(=O)COc2ccc3ccccc3c2)c(F)c1 (stereo not drawn) [Example 3.3.1, 1-(1-(2-fluoro-4-methoxyphenyl)-7-(trifluoromethyl)-3,4-dihydroimidazo[1,2-a:5,4-c′]dipyridin-2(1H)-yl)-2-(naphthalen-2-yloxy)ethan-1-one]",8.30
25,"COc1ccc(C2c3c(nc4cc(C(F)(F)F)ccn34)CCN2C(=O)COc2ccc(CN3CCOCC3)cc2Cl)c(F)c1 (stereo not drawn) [Example 3.3.2, 2-(2-chloro-4-(morpholinomethyl)phenoxy)-1-(1-(2-fluoro-4-methoxyphenyl)-7-(trifluoromethyl)-3,4-dihydroimidazo[1,2-a:5,4-c′]dipyridin-2(1H)-yl)ethan-1-one]",8.15
26,"COc1ccc(C2c3c(nc4cc(C(F)(F)F)ccn34)CCN2C(=O)COc2ccc(CN3CCOCC3)c(C)c2C)c(F)c1 (stereo not drawn) [Example 3.3.3, 2-(2,3-dimethyl-4-(morpholinomethyl)phenoxy)-1-(1-(2-fluoro-4-methoxyphenyl)-7-(trifluoromethyl)-3,4-dihydroimidazo[1,2-a:5,4-c′]dipyridin-2(1H)-yl)ethan-1-one]",8.10
27,"COc1ccc(C2c3c(nc4cc(C(F)(F)F)ccn34)CCN2C(=O)COc2ccc3c(c2C)CCN(C(=O)OC(C)(C)C)C3)c(F)c1 (stereo not drawn) [Example 3.3.4, tert-butyl 6-(2-(1-(2-fluoro-4-methoxyphenyl)-7-(trifluoromethyl)-3,4-dihydroimidazo[1,2-a:5,4-c′]dipyridin-2(1H)-yl)-2-oxoethoxy)-5-methyl-3,4-dihydroisoquinoline-2(1H)-carboxylate]",6.75
28,"COc1ccc(C2c3c(nc4cc(C(F)(F)F)ccn34)CCN2C(=O)COc2ccc3c(c2C)CCNC3)c(F)c1 (stereo not drawn) [Example 3.3.5, 1-(1-(2-fluoro-4-methoxyphenyl)-7-(trifluoromethyl)-3,4-dihydroimidazo[1,2-a:5,4-c′]dipyridin-2(1H)-yl)-2-((5-methyl-1,2,3,4-tetrahydroisoquinolin-6-yl)oxy)ethan-1-one]",6.66
29,"COc1ccc(C2c3c(nc4cc(C(F)(F)F)ccn34)CCN2C(=O)COc2ccc3c(c2C)CCN(C(C)=O)C3)c(F)c1 (stereo not drawn) [Example 3.3.6, 2-((2-acetyl-5-methyl-1,2,3,4-tetrahydroisoquinolin-6-yl)oxy)-1-(1-(2-fluoro-4-methoxyphenyl)-7-(trifluoromethyl)-3,4-dihydroimidazo[1,2-a:5,4-c′]dipyridin-2(1H)-yl)ethan-1-one]",7.96
30,"COc1ccc(C2c3c(nc4cc(C(F)(F)F)ccn34)CCN2C(=O)COc2ccc3c(c2C)CCN(C)C3)c(F)c1 (stereo not drawn) [Example 3.3.7, 2-((2,5-dimethyl-1,2,3,4-tetrahydroisoquinolin-6-yl)oxy)-1-(1-(2-fluoro-4-methoxyphenyl)-7-(trifluoromethyl)-3,4-dihydroimidazo[1,2-a:5,4-c′]dipyridin-2(1H)-yl)ethan-1-one]",6.93
